Assay results: ChEMBL document CHEMBL5728039, “Inhibitors of Bruton's tyrosine kinase and method of their use” (2020)

Each molecule was assayed against Tyrosine-protein kinase BTK (Homo sapiens, UniProt Q06187) (assay: TBD: TBD).
Chain of Tyrosine-protein kinase BTK (Q06187 whole entry): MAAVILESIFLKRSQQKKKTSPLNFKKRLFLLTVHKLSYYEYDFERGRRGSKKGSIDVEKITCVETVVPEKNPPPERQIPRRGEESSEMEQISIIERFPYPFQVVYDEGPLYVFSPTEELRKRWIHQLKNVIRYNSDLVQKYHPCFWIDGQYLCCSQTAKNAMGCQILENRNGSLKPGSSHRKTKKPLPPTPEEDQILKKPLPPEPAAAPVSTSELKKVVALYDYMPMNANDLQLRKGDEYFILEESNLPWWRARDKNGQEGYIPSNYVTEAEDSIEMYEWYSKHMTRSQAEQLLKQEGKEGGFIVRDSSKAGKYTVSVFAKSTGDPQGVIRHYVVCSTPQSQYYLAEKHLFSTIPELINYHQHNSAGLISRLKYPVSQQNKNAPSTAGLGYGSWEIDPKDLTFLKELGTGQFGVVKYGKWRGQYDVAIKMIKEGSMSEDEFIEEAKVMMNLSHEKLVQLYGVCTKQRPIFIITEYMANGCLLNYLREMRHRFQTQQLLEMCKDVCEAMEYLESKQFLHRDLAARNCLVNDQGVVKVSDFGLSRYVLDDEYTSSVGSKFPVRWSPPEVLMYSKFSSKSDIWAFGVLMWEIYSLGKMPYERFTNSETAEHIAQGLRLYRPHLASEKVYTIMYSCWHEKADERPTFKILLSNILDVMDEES

| IC50 | SMILES |
| --- | --- |
| 25.1 nM | Cc1cc(Oc2ccccc2)ccc1N1C(=O)Nc2c(C(=O)N[C@@H]3CCCOC3)sc3nccc1c23 |
| > 1000 nM | C=CC(=O)N1CCC[C@@H](NC(=O)c2sc3nccc4c3c2NC(=O)N4c2ccc(Oc3cccnn3)cc2)C1 |
| 398 nM | CN1CC(NC(=O)c2sc3nccc4c3c2NC(=O)N4c2ccc(Oc3ccccc3)cc2)CC1=O (stereo not drawn) |
